Test results taken from US12384776B2, “Compounds and uses thereof” (Foghorn Therapeutics Inc., priority 2019, dated 2025).

target: Nanoluciferase-BRD9 fusion protein (3×FLAG-NLuc-BRD9) in SYO-1 cells (Homo sapiens (Human), UniProt Q9H8M2); experiment: SYO1 BRD9 NanoLuc degradation assay; type: cell-based; conditions: SYO-1 cells expressing 3×FLAG-NLuc-BRD9, 6 hours incubation, top dose 1 μM
In short: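 Degradation read as loss of NLuc signal after 6 h compound exposure (1 μM top final, 3-fold steps, 10 points, duplicates) in SYO-1 cells stably carrying 3×FLAG-NLuc-BRD9. Signal normalised between DMSO-treated cells and cells given 1 μM of a known BRD9 degrader.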

Nanoluciferase-BRD9 fusion protein (3×FLAG-NLuc-BRD9) in SYO-1 cells, sequence (Q9H8M2 whole entry, the tested form may be a part): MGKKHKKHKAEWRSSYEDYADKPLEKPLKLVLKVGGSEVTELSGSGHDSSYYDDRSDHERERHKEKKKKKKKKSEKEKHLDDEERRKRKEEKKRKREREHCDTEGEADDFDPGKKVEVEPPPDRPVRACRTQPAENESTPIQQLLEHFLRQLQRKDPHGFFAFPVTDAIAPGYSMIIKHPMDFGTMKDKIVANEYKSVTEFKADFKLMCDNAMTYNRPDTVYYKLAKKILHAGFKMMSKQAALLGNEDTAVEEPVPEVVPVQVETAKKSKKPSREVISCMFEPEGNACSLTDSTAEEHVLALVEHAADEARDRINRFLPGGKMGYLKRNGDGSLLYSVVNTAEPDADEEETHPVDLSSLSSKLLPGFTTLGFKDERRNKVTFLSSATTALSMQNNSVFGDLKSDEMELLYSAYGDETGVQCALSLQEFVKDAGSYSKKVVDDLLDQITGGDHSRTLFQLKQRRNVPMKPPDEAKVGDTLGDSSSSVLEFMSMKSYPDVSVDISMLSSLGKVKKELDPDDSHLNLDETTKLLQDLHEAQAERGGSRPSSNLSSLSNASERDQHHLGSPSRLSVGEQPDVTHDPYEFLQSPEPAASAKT

| IC50 | SMILES |
| --- | --- |
| < 10 nM | CNC(=O)N1CCc2c(-c3cc(OC)c(CN4CCC(CN5CCC6(CC5)CC(Oc5ccc7c(c5)C(=O)N(C5CCC(=O)NC5=O)C7=O)C6)CC4)c(OC)c3)cn(C)c(=O)c2C1 (stereo not shown) [Compound D253] |
| < 10 nM | CNC(=O)N1CCc2c(-c3cc(OC)c(CN4CCC(C(=O)N5CCC6(CC5)CC(Oc5ccc7c(c5)C(=O)N(C5CCC(=O)NC5=O)C7=O)C6)CC4)c(OC)c3)cn(C)c(=O)c2C1 (stereo not shown) [Compound D254] |
| < 10 nM | CNC(=O)N1CCc2c(-c3cc(OC)c(CN4CCC5(CC4)CC(N4CCN(c6ccc7c(c6)C(=O)N(C6CCC(=O)NC6=O)C7=O)CC4)C5)c(OC)c3)cn(C)c(=O)c2C1 (stereo not shown) [Compound D255] |
| < 10 nM | CNC(=O)N1CCc2c(-c3cc(OC)c(CN4CCC(CN5CCN(c6ccc7c(c6)C(=O)N(C6CCC(=O)NC6=O)C7=O)CC5)CC4)c(OC)c3)cn(C)c(=O)c2C1 (stereo not shown) [Compound D256] |
| ≥ 1000 nM | CNC(=O)N1CCc2c(-c3cc(OC)c(CN4CC(CCCN5CCN(c6ccc7c(c6)C(=O)N(C6CCC(=O)NC6=O)C7=O)CC5)C4)c(OC)c3)cn(C)c(=O)c2C1 (stereo not shown) [Compound D257] |
| 100 to 1000 nM | CNC(=O)N1CCc2c(-c3cc(OC)c(CN4CC(CCN5CCN(c6ccc7c(c6)C(=O)N(C6CCC(=O)NC6=O)C7=O)CC5)C4)c(OC)c3)cn(C)c(=O)c2C1 (stereo not shown) [Compound D258] |
| 10 to 100 nM | COc1cc(-c2cn(C)c(=O)c3c2CCN(C(=O)NCC2CC4(CCN(CCOc5ccc6c(c5)C(=O)N(C5CCC(=O)NC5=O)C6=O)CC4)CO2)C3)cc(OC)c1CN(C)C (stereo not shown) [Compound D259] |
| 10 to 100 nM | COc1cc(-c2cn(C)c(=O)c3c2CCN(C(=O)NCCCN2CCC4C2CN4c2ccc4c(c2)C(=O)N(C2CCC(=O)NC2=O)C4=O)C3)cc(OC)c1CN(C)C (stereo not shown) [Compound D260] |
| 10 to 100 nM | COc1cc(-c2cn(C)c(=O)c3c2CCN(C(=O)NCCCN2CCC4(CCN4c4ccc5c(c4)C(=O)N(C4CCC(=O)NC4=O)C5=O)C2)C3)cc(OC)c1CN(C)C (stereo not shown) [Compound D261] |
| 100 to 1000 nM | COc1cc(-c2cn(C)c(=O)c3c2CCN(C(=O)NC2CC4(CCN(CCCOc5ccc6c(c5)C(=O)N(C5CCC(=O)NC5=O)C6=O)C4)C2)C3)cc(OC)c1CN(C)C (stereo not shown) [Compound D262] |
| 100 to 1000 nM | COc1cc(-c2cn(C)c(=O)c3c2CCN(C(=O)NC2CC4(C2)CN(CCCOc2ccc5c(c2)C(=O)N(C2CCC(=O)NC2=O)C5=O)C4)C3)cc(OC)c1CN(C)C (stereo not shown) [Compound D263] |
| ≥ 1000 nM | COc1cc(-c2cn(C)c(=O)c3c2CCN(C(=O)NC2CC4(C2)CN(CCOc2ccc5c(c2)C(=O)N(C2CCC(=O)NC2=O)C5=O)C4)C3)cc(OC)c1CN(C)C (stereo not shown) [Compound D264] |
| 100 to 1000 nM | COc1cc(-c2cn(C)c(=O)c3c2CCN(C(=O)NCC2CC4CN(CCCOc5ccc6c(c5)C(=O)N(C5CCC(=O)NC5=O)C6=O)CC4C2)C3)cc(OC)c1CN(C)C (stereo not shown) [Compound D265] |
| 10 to 100 nM | COc1cc(-c2cn(C)c(=O)c3c2CCN(C(=O)NCC2CC4CN(CCOc5ccc6c(c5)C(=O)N(C5CCC(=O)NC5=O)C6=O)CC4C2)C3)cc(OC)c1CN(C)C (stereo not shown) [Compound D266] |
| 10 to 100 nM | COc1cc(-c2cn(C)c(=O)c3c2CCN(C(=O)NCC2CC4(CCN(CCOc5ccc6c(c5)C(=O)N(C5CCC(=O)NC5=O)C6=O)CC4)C2)C3)cc(OC)c1CN(C)C (stereo not shown) [Compound D267] |
| 10 to 100 nM | COc1cc(-c2cn(C)c(=O)c3c2CCN(C(=O)NCC2CC4(C2)CN(CCOc2ccc5c(c2)C(=O)N(C2CCC(=O)NC2=O)C5=O)C4)C3)cc(OC)c1CN(C)C (stereo not shown) [Compound D268] |
| 10 to 100 nM | COc1cc(-c2cn(C)c(=O)c3c2CCN(C(=O)NCC2CC24CCN(CCOc2ccc5c(c2)C(=O)N(C2CCC(=O)NC2=O)C5=O)CC4)C3)cc(OC)c1CN(C)C (stereo not shown) [Compound D269] |
| 100 to 1000 nM | COc1cc(-c2cn(C)c(=O)c3c2CCN(C(=O)NC2CC4CC2CN4CCCOc2ccc4c(c2)C(=O)N(C2CCC(=O)NC2=O)C4=O)C3)cc(OC)c1CN(C)C (stereo not shown) [Compound D270] |
| 10 to 100 nM | COc1cc(-c2cn(C)c(=O)c3c2CCN(C(=O)NC2CCC4CN(CCOc5ccc6c(c5)C(=O)N(C5CCC(=O)NC5=O)C6=O)CC42)C3)cc(OC)c1CN(C)C (stereo not shown) [Compound D271] |
| 100 to 1000 nM | COc1cc(-c2cn(C)c(=O)c3c2CCN(C(=O)NC2CC4CN(CCOc5ccc6c(c5)C(=O)N(C5CCC(=O)NC5=O)C6=O)CC4C2)C3)cc(OC)c1CN(C)C (stereo not shown) [Compound D273] |
| 100 to 1000 nM | COc1cc(-c2cn(C)c(=O)c3c2CCN(C(=O)NC2CC4CC2CN4CCOc2ccc4c(c2)C(=O)N(C2CCC(=O)NC2=O)C4=O)C3)cc(OC)c1CN(C)C (stereo not shown) [Compound D274] |
| 10 to 100 nM | CNC(=O)N1CCc2c(-c3cc(OC)c(CN4CC(CC(=O)N5CCC6(CC5)CC(Oc5ccc7c(c5)C(=O)N(C5CCC(=O)NC5=O)C7=O)C6)C4)c(OC)c3)cn(C)c(=O)c2C1 (stereo not shown) [Compound D275] |
| 10 to 100 nM | CNC(=O)N1CCc2c(-c3cc(OC)c(CN(C)C45CC(C(=O)NCCCCCOc6ccc7c(c6)C(=O)N(C6CCC(=O)NC6=O)C7=O)(C4)C5)c(OC)c3)cn(C)c(=O)c2C1 (stereo not shown) [Compound D276] |

| IC50 | SMILES |
| --- | --- |
| 100 to 1000 nM | CNC(=O)N1CCc2c(-c3cc(OC)c(CN4CC(S(=O)(=O)NCCCOc5ccc6c(c5)C(=O)N(C5CCC(=O)NC5=O)C6=O)C4)c(OC)c3)cn(C)c(=O)c2C1 (stereo not shown) [Compound D277] |
| 10 to 100 nM | CNC(=O)N1CCc2c(-c3cc(OC)c(CN4CC(S(=O)(=O)NCCCCOc5ccc6c(c5)C(=O)N(C5CCC(=O)NC5=O)C6=O)C4)c(OC)c3)cn(C)c(=O)c2C1 (stereo not shown) [Compound D278] |
| 100 to 1000 nM | CNC(=O)N1CCc2c(-c3cc(OC)c(CN4CC(S(=O)(=O)NCCOc5ccc6c(c5)C(=O)N(C5CCC(=O)NC5=O)C6=O)C4)c(OC)c3)cn(C)c(=O)c2C1 (stereo not shown) [Compound D279] |
| 100 to 1000 nM | CNC(=O)N1CCc2c(-c3cc(OC)c(CN4CC(S(=O)(=O)NCCCOc5cccc6c5C(=O)N(C5CCC(=O)NC5=O)C6=O)C4)c(OC)c3)cn(C)c(=O)c2C1 (stereo not shown) [Compound D280] |
| 10 to 100 nM | CNC(=O)N1CCc2c(-c3cc(OC)c(CN4CC(S(=O)(=O)NCCCCOc5cccc6c5C(=O)N(C5CCC(=O)NC5=O)C6=O)C4)c(OC)c3)cn(C)c(=O)c2C1 (stereo not shown) [Compound D281] |
| 100 to 1000 nM | CNC(=O)N1CCc2c(-c3cc(OC)c(CN4CC(S(=O)(=O)NCCOc5cccc6c5C(=O)N(C5CCC(=O)NC5=O)C6=O)C4)c(OC)c3)cn(C)c(=O)c2C1 (stereo not shown) [Compound D282] |
| < 10 nM | CNC(=O)N1CCc2c(-c3cc(OC)c(CN(C)C45CC(C(=O)NCCCCCOc6cccc7c6C(=O)N(C6CCC(=O)NC6=O)C7=O)(C4)C5)c(OC)c3)cn(C)c(=O)c2C1 (stereo not shown) [Compound D283] |
| 10 to 100 nM | CNC(=O)N1CCc2c(-c3cc(OC)c(CN(C)CCOCCN4CCN(c5ccc6c(c5)C(=O)N(C5CCC(=O)NC5=O)C6=O)CC4)c(OC)c3)cn(C)c(=O)c2C1 (stereo not shown) [Compound D284] |
| 100 to 1000 nM | CNC(=O)N1CCc2c(-c3cc(OC)c(CN(C)CC45CC(C(=O)NCCCCCOc6ccc7c(c6)C(=O)N(C6CCC(=O)NC6=O)C7=O)(C4)C5)c(OC)c3)cn(C)c(=O)c2C1 (stereo not shown) [Compound D286] |
| 100 to 1000 nM | CNC(=O)N1CCc2c(-c3cc(OC)c(CN4CC(S(=O)(=O)NCCN5CCN(c6ccc7c(c6)C(=O)N(C6CCC(=O)NC6=O)C7=O)CC5)C4)c(OC)c3)cn(C)c(=O)c2C1 (stereo not shown) [Compound D287] |
| 100 to 1000 nM | CNC(=O)N1CCc2c(-c3cc(OC)c(CN(C)CC45CC(C(=O)NCCCCCOc6cccc7c6C(=O)N(C6CCC(=O)NC6=O)C7=O)(C4)C5)c(OC)c3)cn(C)c(=O)c2C1 (stereo not shown) [Compound D288] |
| 10 to 100 nM | CNC(=O)N1CCc2c(-c3cc(OC)c(CN4CC5CN(C(=O)CCOCCOc6ccc7c(c6)C(=O)N(C6CCC(=O)NC6=O)C7=O)CCC54)c(OC)c3)cn(C)c(=O)c2C1 (stereo not shown) [Compound D289] |
| ≥ 1000 nM | COc1cc(-c2cn(C)c(=O)c3c2CCN(C(=O)NCCN(C)CCNC(=O)COc2ccc4c(c2)CN(C2CCC(=O)NC2=O)C4=O)C3)cc(OC)c1CN(C)C (stereo not shown) [Compound D290] |
| 10 to 100 nM | COc1cc(-c2cn(C)c(=O)c3c2CCN(C(=O)NCCCCCCCCNc2cccc4nc(C)n(C5CCC(=O)NC5=O)c(=O)c24)C3)cc(OC)c1CN(C)C (stereo not shown) [Compound D291] |
| 100 to 1000 nM | COc1cc(-c2cn(C)c(=O)c3c2CCN(C(=O)NCCOCCOCCNc2cccc4nc(C)n(C5CCC(=O)NC5=O)c(=O)c24)C3)cc(OC)c1CN(C)C (stereo not shown) [Compound D292] |
| ≥ 1000 nM | CNC(=O)N1CCc2c(c(-c3cc(OC)c(CN(C)CC45CC(C(=O)NCCCCCOc6cccc7c6C(=O)N(C6CCC(=O)NC6=O)C7=O)(C4)C5)c(OC)c3)cn(C)c2=O)C1 (stereo not shown) [Compound D294] |
| 100 to 1000 nM | CNC(=O)N1CCc2c(c(-c3cc(OC)c(CN4CC5CN(C(=O)CCOCCOc6ccc7c(c6)C(=O)N(C6CCC(=O)NC6=O)C7=O)CCC54)c(OC)c3)cn(C)c2=O)C1 (stereo not shown) [Compound D295] |
| ≥ 1000 nM | CNC(=O)N1CCc2c(c(-c3cc(OC)c(CN(C)CCOCCN4CCN(c5ccc6c(c5)C(=O)N(C5CCC(=O)NC5=O)C6=O)CC4)c(OC)c3)cn(C)c2=O)C1 (stereo not shown) [Compound D296] |
| ≥ 1000 nM | CNC(=O)N1CCc2c(c(-c3cc(OC)c(CN(C)CC(=O)NCCOCCOc4cccc5c4C(=O)N(C4CCC(=O)NC4=O)C5=O)c(OC)c3)cn(C)c2=O)C1 (stereo not shown) [Compound D297] |
| ≥ 1000 nM | COc1cc(-c2cn(C)c(=O)c3c2CN(C(=O)N(C)C)CC3)cc(OC)c1CN(C)CCOCCN1CCN(c2ccc3c(c2)C(=O)N(C2CCC(=O)NC2=O)C3=O)CC1 (stereo not shown) [Compound D298] |
| < 10 nM | CNC(=O)N1Cc2c(-c3cc(OC)c(CN4CCC(CCN5CCN(c6ccc7c(c6)C(=O)N(C6CCC(=O)NC6=O)C7=O)CC5)CC4)c(OC)c3)cn(C)c(=O)c2C1 (stereo not shown) [Compound D299] |
| < 10 nM | CNC(=O)N1Cc2c(-c3cc(OC)c(CN4CCC5(CC4)CN(c4ccc6c(c4)C(=O)N([C@@H]4CCC(=O)NC4=O)C6=O)C5)c(OC)c3)cn(C)c(=O)c2C1 [Compound D300] |

same assay, conditions: SYO-1 cells expressing 3×FLAG-NLuc-BRD9, 6 hours incubation, top dose 1 μM; read-out: SYO1 BRD9-NanoLuc degradation IC50

| DC50 | SMILES |
| --- | --- |
| 100 to 1000 nM | COc1cc(-c2cn(C)c(=O)c3c2CN(C)CC3)cc(OC)c1CN1CC(CN2CCC3(CC2)CN(c2ccc4c(c2)C(=O)N(C2CCC(=O)NC2=O)C4)C3)C1 (stereo not shown) [Compound D293] |
